Test results published in paper PMC3150614 (Journal of medicinal chemistry, 2011).

Tests used:
[1] = target: T1, Plasmodium falciparum arginase (PFA) (Plasmodium falciparum, UniProt Q8I384); format: biochemical; details: racemic mixtures
T1 sequence (Q8I384 1-411): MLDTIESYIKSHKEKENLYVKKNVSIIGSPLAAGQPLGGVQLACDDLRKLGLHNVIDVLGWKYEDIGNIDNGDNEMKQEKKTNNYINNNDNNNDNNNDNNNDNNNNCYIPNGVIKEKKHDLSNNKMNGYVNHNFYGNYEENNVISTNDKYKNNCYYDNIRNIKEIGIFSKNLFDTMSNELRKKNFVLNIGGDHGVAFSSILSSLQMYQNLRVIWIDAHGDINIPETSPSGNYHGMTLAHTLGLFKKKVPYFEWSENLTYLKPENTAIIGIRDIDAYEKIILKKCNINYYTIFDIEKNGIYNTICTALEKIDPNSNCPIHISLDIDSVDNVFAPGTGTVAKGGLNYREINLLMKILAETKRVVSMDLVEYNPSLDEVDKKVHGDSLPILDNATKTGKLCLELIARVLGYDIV

human arginase I (HAI) = target: T2, human arginase I (HAI) (Homo sapiens, UniProt P05089); test: Surface plasmon resonance binding to immobilized HAI; details: based on Kd, racemic mixtures
T2 sequence (P05089 1-322): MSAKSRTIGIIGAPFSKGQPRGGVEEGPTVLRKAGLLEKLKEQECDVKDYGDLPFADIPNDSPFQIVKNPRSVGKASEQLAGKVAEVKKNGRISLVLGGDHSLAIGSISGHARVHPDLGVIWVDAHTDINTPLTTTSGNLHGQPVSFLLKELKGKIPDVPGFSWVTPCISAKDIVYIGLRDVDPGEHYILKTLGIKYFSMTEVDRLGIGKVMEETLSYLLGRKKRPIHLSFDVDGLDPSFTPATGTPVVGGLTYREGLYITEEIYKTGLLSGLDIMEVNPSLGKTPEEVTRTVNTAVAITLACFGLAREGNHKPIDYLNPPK

SMILES: CC(N)(CCCCB(O)O)C(=O)O (stereo not shown) [MABH, 2-Amino-6-borono-2-methylhexanoic acid]
- fold weaker inhibitory potency against PFA than ABH, based on Ki [1]: 26 fold
- fold less tight binding to HAI compared with ABH (human arginase I (HAI)): 49 fold

SMILES: NC(CCCCB(O)O)(C(=O)O)C(F)F (stereo not shown) [FABH, 2-Amino-6-borono-2-(difluoromethyl)hexanoic acid]
- fold weaker inhibitory potency against PFA than ABH, based on Ki [1]: 200 fold
- fold less tight binding to HAI compared with ABH (human arginase I (HAI)): 1889 fold
